From patent US3988473A (priority 1975, dated 1976)
Where “and” joins values, the source holds several entries; their conditions need not be identical. Identical values can stand only once. Like-named read-outs stand apart in the source and are kept apart here.

How the values were obtained:
[1] = in vivo
[2] = tested on: Guinea Pig Intradermal Wheals; settings: in vivo
in vivo [3] = settings: mouse
Cat = settings: in vivo
Female Mice = settings: mouse, in vivo
tissue = settings: in vivo
rat sciatic nerve = settings: in vivo
[4] = tested on: isolated frog sciatic nerve; design: species or system Rana pipiens; settings: for Greatest Depth of Block (% of action potential): frog, sciatic nerve
in vivo [5] = settings: mouse, ip
Dog = settings: in vivo
Sheep = settings: in vivo
[6] = tested on: brain and the spinal cord; settings: in vivo
in vivo [7] = settings: rat, sc
guinea pigs = settings: guinea pig, in vivo, sc, 646 mg/kg

SMILES | Local anaesthetic effect (in words) [1] | Duration of guinea pig intradermal wheals [2] | LD50 (in vivo [3]; ip) [mg/kg] | LD50 (in vivo [3]; iv) [mg/kg] | LD50 (in vivo [3]; sc) [mg/kg] | Duration of Block of Support of Weight (Cat) | Tissue irritation (in words) (tissue) | Duration (rat sciatic nerve) | Frequency (rat sciatic nerve) | Onset (rat sciatic nerve) | Average time for 80% recovery of action potential [4] [min] | further results
Cc1cccc(C)c1NC(=O)CNC(C)(C)C [A, 2-(tert.-butylamino)-2',6'-acetoxylidide] | unusually long-lasting local anaesthetic effect | 129 ± 14 min and 148 ± 20 min and 186 ± 17 min and 197 ± 14 min | 119 | 35.4 | 141 | 54 ± 9 min and 104 ± 29 min | quite satisfactory | 126 ± 12 and 157 ± 18 | 5/5 | 5 min |  | Intravenous toxicity (in words) (Female Mice; iv): unusually low intravenous toxicity
CCN(CC(=O)Nc1c(C)cccc1C)C(C)(C)CC [C, 2-(N-ethyl-tert.-amylamino)-2',6'-acetoxylidide] | unusual, long-lasting local anaesthetic effect and high local anaesthetic activity | 158 ± 49 min and 230 ± 32 min and 301 ± 11 min | 81 | 7.4 |  | 220 ± 64 min and 298 ± 56 min | satisfactory low level of tissue irritation |  |  |  | 29 | Duration of anaesthesia (in words) [1]: significantly longer duration than compounds A and B; Duration of Block of Support of Weight, 1 animal outside the mean (Cat): > 7 h; Acute toxicity (in words) (Female Mice): satisfactory low acute toxicity; Irritation compared with bupivacaine (tissue): not more irritating than bupivacaine at 0.5% concentration; Duration of rat sciatic nerve block (days) (rat sciatic nerve): 1 to 8 days; Greatest Depth of Block (% of action potential) ([4]; 20000 µM): 77%
Cc1cccc(C)c1NC(=O)C(C)NC(C)(C)C (centres unmarked) [Compound B, 2-(tert.-butylamino)-2',6'-propionoxylidide] |  |  |  |  |  |  |  | 128 ± 13 and 133 ± 7 | 5/5 | 3 min and 2 min |  | Guinea Pig Wheal Duration [2]: 139 ± 24 and 160 ± 43 and 184 ± 36; Guinea Pig Wheal Frequency [2]: 12/12; LD50 (in vivo [5]): 61 mg/kg; Adverse signs in rat sciatic test (rat sciatic nerve): Depression, ataxia, loss of righting reflex in some animals; Rat Sciatic Frequency (rat sciatic nerve): 8/10 and 10/10
CCCN(CC(=O)Nc1c(C)cccc1C)C(C)(C)CC [Compound D, 2-(N-n-propyl-tert.-amylamino)-2',6'-acetoxylidide] | unusual, long-lasting local anaesthetic effect and high local anaesthetic activity | 171 ± 26 min and 227 ± 21 min and 253 ± 16 min and 303 ± 19 min | 39 | 6.8 | 109 |  | satisfactory low level of tissue irritation |  |  |  | 163 | Duration of anaesthesia (in words) [1]: significantly longer duration than compounds A and B; Duration of block of Digital Pain (Dog): 1 to 2 days; Duration, Digital Pain (Dog): 289 min and 338 min; Duration, Scrotal Pain (Dog): 218 min and 226 min; Recovery of the animals (Dog): All animals recovered completely; Acute toxicity (in words) (Female Mice): satisfactory low acute toxicity; Duration of block of Digital Pain (Sheep): 45 to 60 min; Onset time (Sheep): 5 to 10 min; Irritation compared with bupivacaine (tissue): not more irritating than bupivacaine at 0.5% concentration; Pathological change in brain and spinal cord [6]: no pathological change attributable to the drugs was found; Duration of block, 2 animals outside the mean (rat sciatic nerve): 10 to 13 days; Duration of rat sciatic nerve block (rat sciatic nerve): 217 ± 25 min and 124 ± 50 min and 157 ± 30 min; Duration of rat sciatic nerve block (days) (rat sciatic nerve): 8 to 27 days and 13 to 30 days; Greatest Depth of Block (% of action potential) ([4]; 5000 µM): 96%
CCCCN(CC(=O)Nc1c(C)cccc1C)C(C)(C)C [Compound E, 2-(N-n-butyl-tert.-butylamino)-2',6'-acetoxylide] |  |  |  |  |  |  |  |  |  |  |  | Duration of block of Digital Pain (Dog): 1 to 2 days; Recovery of the animals (Dog): All animals recovered completely; LD50 (in vivo [5]): 284 mg/kg; LD50 (in vivo [7]): 1070 mg/kg; Pathological change in brain and spinal cord [6]: no pathological change attributable to the drugs was found; Survival (guinea pigs): all animals survived; Duration of rat sciatic nerve block, Mean ± S.D. (rat sciatic nerve): 174 ± 26 min and 200 ± 18 min and 237 min; Frequencies and durations (in words) (rat sciatic nerve): Frequencies and durations were good; Frequency of rat sciatic nerve block (rat sciatic nerve): 9/10 and 10/10
CCC(C)(C)NCC(=O)Nc1c(C)cccc1C [Compound F, 2-(N-tert.-amylamino)-2',6'-acetoxylidide] |  |  |  |  |  |  |  | 97 ± 4 and 101 ± 8 | 6/6 | 3 min and 2 min |  | 
CCCCN1CCCCC1C(=O)Nc1c(C)cccc1C (centres unmarked) [X, N-n-butylpipecolyl-2,6-xylidide, reference compound] |  | 182 ± 4 min and 252 ± 5 min and 314 ± 10 min | 40 | 6.4 | 45 |  |  |  |  |  | 65 | Toxic effects (Cat): Toxic effects observed; Greatest Depth of Block (% of action potential) ([4]; 5000 µM): 64%
CCN(CC)CC(=O)Nc1c(C)cccc1C [Y, diethylaminoaceto-2,6-xylide, reference compound] |  | 78 ± 9 min and 110 ± 13 min and 117 ± 6 min and 121 ± 12 min |  |  |  | 88 ± 10 min |  |  |  |  |  | 
